PubChem BioAssay (NCI)
“And” between values parts separate entries of the source, which are not always exact repeats. Equal entries are not always repeated.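 Cultured in 96-well plates, cells were exposed to test compound for 48 hours across five concentrations. GI50 marks 50% less growth. TGI denotes the concentration required for complete inhibition of growth.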

What was measured:
Assay in all cases: inhibition of tumour cell growth, NCI panel, 48 h
HL-60(TB) leukemia = system: HL-60(TB) leukemia
HOP-62 NSCLC = system: HOP-62 NSCLC
U251 CNS = system: U251 CNS
NCI-H23 lung = system: NCI-H23 lung
SNB-78 CNS = system: SNB-78 CNS
786-0 renal = system: 786-0 renal
LXFL 529 NSCLC = system: LXFL 529 NSCLC
HT29 colon = system: HT29 colon
OVCAR-4 ovarian = system: OVCAR-4 ovarian
MDA-MB-231 breast = system: MDA-MB-231 breast

SMILES | TGI (HL-60(TB) leukemia) [µM] | TGI (HOP-62 NSCLC) [µM] | TGI (U251 CNS) [µM] | TGI (NCI-H23 lung) [µM] | TGI (SNB-78 CNS) [µM] | TGI (786-0 renal) [µM] | TGI (LXFL 529 NSCLC) [µM] | TGI (HT29 colon) | TGI (OVCAR-4 ovarian) [µM] | GI50 (LXFL 529 NSCLC) [µM] | GI50 (HOP-62 NSCLC) [µM] | GI50 (U251 CNS) [µM] | GI50 (NCI-H23 lung) [µM] | GI50 (SNB-78 CNS) [µM] | GI50 (786-0 renal) [µM] | GI50 (HT29 colon) [µM] | GI50 (OVCAR-4 ovarian) [µM] | GI50 (HL-60(TB) leukemia) [µM] | GI50 (MDA-MB-231 breast) [µM] | TGI (MDA-MB-231 breast) [µM]
COc1ccc(OC)c(/C=C/NC=O)c1 | > 100 | > 100 | > 100 | > 100 | > 100 | > 100 | > 100 | > 100 µM | > 100 |  |  |  |  |  |  |  |  |  |  | 
CNC=O.[O]=[Ge].[O]=[Ge].[O]=[Ge].[O]=[Ge][OH].[O]=[Ge][OH] | > 100 | > 100 |  | > 100 | > 100 | > 100 | > 100 | > 100 µM | > 100 | > 100 |  |  |  |  |  |  |  |  |  | 
CSc1ccc(/C=C2/C[N+](C)(C)C/C(=C/c3ccc(SC)cc3)C2=O)cc1 | 9.82 |  | 7.92 |  | > 100 | 26.8 |  |  |  |  |  |  |  |  |  |  |  |  |  | 
COC(=O)C1=C(c2ccc3c(c2)OCO3)O[C@H](c2ccc3c(c2)OCO3)[C@H]1COC(C)=O | > 100 | > 100 | > 100 | > 100 | > 100 | > 100 | > 100 | > 100 µM | > 100 |  |  |  |  |  |  |  |  |  |  | 
Cc1cccc(N2C(=O)C(Cl)=C(Cl)C2=O)c1 | > 100 | > 100 | > 100 | > 100 | > 100 | > 87.5 | > 56.3 | > 100 µM | > 71.7 |  |  |  |  |  |  |  |  |  |  | 
O=C(/C=C/c1ccccc1Cl)c1ccccc1Cl | 47.1 | > 100 | 30.8 | 52.9 | 69.2 | 28.8 | 32 | 41.3 µM | 41.3 |  |  |  |  |  |  |  |  |  |  | 
CSc1nc(NC2OC(COC(C)=O)C(OC(C)=O)C(OC(C)=O)C2OC(C)=O)c2c(OC(C)=O)c(C)c(=O)oc2n1 (stereo not given) | > 100 | > 100 | > 100 | > 100 | > 100 | > 100 | > 100 | > 100 µM | > 100 |  |  |  |  |  |  |  |  |  |  | 
CCc1cccc(C)c1NC(C)=O | > 100 | > 100 | > 100 | > 100 | > 100 | > 100 | > 100 | > 100 µM | > 100 |  |  |  |  |  |  |  |  |  |  | 
Cc1cccc(C(C)(C)C)c1NC(=O)CCc1n[nH]c(=S)o1 | > 100 | > 100 | > 100 | > 100 | > 100 | > 100 | > 100 | > 100 µM | > 100 |  |  |  |  |  |  |  |  |  |  | 
O=S(O)CCCCSSCCCCSSCCCCS(=O)O | 30.6 |  | > 100 | > 100 | 70.5 | > 100 | 28.4 |  | 33.9 |  |  |  |  |  |  |  |  |  |  | 
O=C(NC1CCCCCC1)C1C(=O)N(C2CCCCCC2)C(=O)/C1=N\O (stereo not given) | 47.8 | 36.5 | 34.9 | 93.1 | > 100 | > 100 | > 100 | 94.2 µM | > 100 |  |  |  |  |  |  |  |  |  |  | 
C#CC[C@]12CC(=O)CC[C@H]1CC(=O)C2 | > 100 | > 100 | > 100 |  | > 100 | > 100 | > 100 |  | > 100 |  |  |  |  |  |  |  |  |  |  | 
COC(=O)c1cc2c(c(C(=O)OC)c1O)C(=O)C=CC2=O | > 24.4 | > 93.4 | > 55.8 | > 31.6 | > 66.8 | > 56.1 | 9.1 | > 9.1 µM and 38.5 µM | > 54 | 4.16 | > 9.1 | > 9.1 | > 9.1 | > 9.1 | > 9.1 | 18.4 | > 9.1 |  |  | 
CC(=O)SCCC1c2[nH]c3ccccc3c2CCN1O (stereo not given) | > 100 | > 100 | > 100 | > 100 |  | > 100 | > 100 | > 100 µM | > 100 |  |  |  |  |  |  |  |  |  |  | 
COc1ccc(C(=O)O)c(Cc2cccc3ccccc23)c1 | > 100 | > 100 | > 100 | > 100 |  | > 100 | > 100 | > 100 µM | > 100 |  |  |  |  |  |  |  |  |  |  | 
Cc1ccc(NC(=O)C2C(=O)N(c3ccc(C)c(C)c3)C(=O)/C2=N/O)cc1C (stereo not given) | > 100 | > 100 | > 100 | > 100 | > 100 | > 100 | > 100 | > 100 µM |  |  |  |  |  |  |  |  |  |  |  | 
C[C@]12CC[C@@H]3c4ccc(Oc5nc(N6CC6)nc(N6CC6)n5)cc4CC[C@H]3[C@@H]1CCC2=O | 3.26 | 15.4 | 11.7 | 19 |  | 22.3 |  | 19.4 µM | 15.2 |  | 2.23 | 2 | 3.36 |  | 3.41 | 4.39 | 3.38 | 0.529 | 10.2 | 25.2
Cn1cc(C2=C(c3cn(C)c4c(N)cccc34)C(=O)NC2=O)c2ccccc21 | 7.28 | > 15.2 | > 19.2 | 21.3 |  | > 25 |  | 12.8 µM | > 23.6 |  | 1.25 | 1.19 | 4.33 |  | 2 | 1.25 | 8.3 | 1.05 | 4.63 | 20.8
CCCCC/C=C/C/C=C/CCCCCCCC1=NC(C)(C)CN1C(C)C | 3.43 | 3.17 | 2.87 | 3.24 |  | 5.12 |  | 2.74 µM | 3 |  | 1.58 | 1.53 | 1.49 |  | 2.24 | 1.38 | 1.55 | 1.48 | 1.75 | 4.36
Cc1c2c(nn1-c1ccc(S(=O)(=O)/N=C3\SCC(=O)N3C(=O)c3ccccc3)cc1)-c1ccccc1CC2 | > 100 | > 100 | 62.4 | 73.2 |  | 77.9 |  | > 100 µM | > 100 |  | 33.5 | 23.3 | 27.7 |  | 28.9 | 63.5 | 77.5 | 65.5 | 24 | 58.7
Cn1cc(C2=C(c3cn(CCCN=C(N)N)c4ccccc34)C(=O)NC2=O)c2ccccc21 | > 25 | > 25 | > 25 | > 25 |  | > 25 |  | > 25 µM | > 25 |  | > 25 | > 25 | > 25 |  | > 25 | > 25 | > 25 | > 25 | > 25 | > 25
